From patent US9914730B2, “Azaquinazoline inhibitors of Atypical protein Kinase C” (Ignyta, Inc., priority 2012, dated 2018)

Biological target: T1, full-length human PKCι (Homo sapiens, UniProt P41743)
T1 construct: Recombinant, full-length human PKCι expressed in Sf21 insect cells is also commercially available; purchased; host or cells: Sf21 insect cells
T1 sequence (P41743 1-596): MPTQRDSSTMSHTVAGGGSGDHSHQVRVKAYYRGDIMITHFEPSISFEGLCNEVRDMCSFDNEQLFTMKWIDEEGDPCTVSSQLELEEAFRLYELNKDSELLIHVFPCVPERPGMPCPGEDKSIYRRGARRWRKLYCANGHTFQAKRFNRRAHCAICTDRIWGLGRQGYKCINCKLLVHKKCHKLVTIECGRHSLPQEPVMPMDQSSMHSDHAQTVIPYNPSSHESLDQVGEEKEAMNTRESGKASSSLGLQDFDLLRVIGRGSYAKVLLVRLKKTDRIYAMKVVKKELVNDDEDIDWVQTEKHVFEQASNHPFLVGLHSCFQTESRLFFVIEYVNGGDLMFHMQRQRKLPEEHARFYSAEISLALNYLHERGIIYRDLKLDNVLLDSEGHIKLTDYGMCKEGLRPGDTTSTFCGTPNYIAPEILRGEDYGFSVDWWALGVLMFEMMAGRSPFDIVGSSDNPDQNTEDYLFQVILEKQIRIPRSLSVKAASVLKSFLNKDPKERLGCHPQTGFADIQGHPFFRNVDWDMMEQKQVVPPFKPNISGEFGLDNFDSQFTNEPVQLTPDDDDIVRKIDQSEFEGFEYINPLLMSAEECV
Experiment: PKCι IC50 IMAP assay, full-length PKCι at 150 μM ATP
Assay type: biochemical
Settings: read-out: IC50 in IMAP assay against full length PKCi at 150 μM ATP
Procedure, shortened: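 IC50 from IMAP FP (ex 485/em 530 nm) after 60 min room-temperature reaction in pH 7.5 tris buffer with 9 mM MgCl2 and 0.9 mM DTT. Enzyme: full-length Sf21-expressed PKCι (~15 pM); ATP 150 μM, five times KM^APP; FAM-labelled peptide 100 nM; DMSO 4%.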

SMILES | IC50
Fc1cccc(F)c1Nc1cc(-c2nc(N3CCCNCC3)c3c(C4CC4)cncc3n2)ccn1 [Example 702, [4-(5-Cyclopropyl-4-[1,4]diazepan-1-yl-pyrido[3,4-d]pyrimidin-2-yl)-pyridin-2-yl]-(2,6-difluoro-phenyl)-amine] | 100 to 1000 nM
COc1cncc2nc(-c3ccnc(Nc4ccccc4)c3)nc(N3CC[C@@H](O)[C@@H](O)CC3)c12 [Example 467, (meso)-cis-1-[5-Methoxy-2-(2-phenylamino-pyridin-4-yl)-pyrido[3,4-d]pyrimidin-4-yl]-azepane-4,5-diol] | 1000 to 10000 nM
FC(F)(F)c1ccc(-n2cc(Nc3cc(-c4nc(N5CCNCC5)c5c(C6CC6)cncc5n4)ccn3)c(Cl)n2)nc1 [Example 2154, [3-Chloro-1-(5-trifluoromethyl-pyridin-2-yl)-1H-pyrazol-4-yl]-[4-(5-cyclopropyl-4-piperazin-1-yl-pyrido[3,4-d]pyrimidin-2-yl)-pyridin-2-yl]-amine] | < 100 nM
Fc1cccc(F)c1Nc1cc(-c2nc(OC3CCNCC3)c3c(C4CC4)cncc3n2)ccn1 [Example 757, {4-[5-Cyclopropyl-4-(piperidin-4-yloxy)-pyrido[3,4-d]pyrimidin-2-yl]-pyridin-2-yl}-(2,6-difluoro-phenyl)-amine] | 100 to 1000 nM
CP(C)(=O)c1ccc(Nc2cc(-c3nc(N4CCNCC4)c4c(C5CC5)cncc4n3)ccn2)cc1 [Example 549, [4-(5-Cyclopropyl-4-piperazin-1-yl-pyrido[3,4-d]pyrimidin-2-yl)-pyridin-2-yl]-[4-(dimethyl-phosphinoyl)-phenyl]-amine] | < 100 nM
N#Cc1ccnc(Nc2cc(-c3nc(N4CC[C@@H](O)[C@H](O)C4)c4c(C5CC5)cncc4n3)ccn2)c1 (racemic) [Example 677, (+/−)-2-{4-[5-Cyclopropyl-4-((trans)-3,4-dihydroxy-piperidin-1-yl)-pyrido[3,4-d]pyrimidin-2-yl]-pyridin-2-ylamino}-isonicotinonitrile] | 100 to 1000 nM
Fc1cccc(F)c1Nc1cc(-c2nc(SC3CCNCC3)c3c(C4CC4)cncc3n2)ccn1 [Example 791, {4-[5-Cyclopropyl-4-(piperidin-4-ylsulfanyl)-pyrido[3,4-d]pyrimidin-2-yl]-pyridin-2-yl}-(2,6-difluoro-phenyl)-amine] | < 100 nM
Fc1cnc(Nc2cc(-c3nc(NC4CCNCC4(F)F)c4c(C5CC5)cncc4n3)ccn2)c(F)c1 (centres unmarked) [Example 2156, {5-Cyclopropyl-2-[2-(3,5-difluoro-pyridin-2-ylamino)-pyridin-4-yl]-pyrido[3,4-d]pyrimidin-4-yl}-(3,3-difluoro-piperidin-4-yl)-amine] | 100 to 1000 nM
Cc1ccc(Cl)c(Nc2cc(-c3nc(N4CCNCC4)c4c(C5CC5)cncc4n3)ccn2)c1F [Example 617, (6-Chloro-2-fluoro-3-methyl-phenyl)-[4-(5-cyclopropyl-4-piperazin-1-yl-pyrido[3,4-d]pyrimidin-2-yl)-pyridin-2-yl]-amine] | < 100 nM
COc1cncc2nc(-c3ccnc(NC(=O)CN4CCCCC4)c3)nc(N3CCNCC3)c12 [Example 210, N-[4-(5-Methoxy-4-piperazin-1-yl-pyrido[3,4-d]pyrimidin-2-yl)-pyridin-2-yl]-2-piperidin-1-yl-acetamide] | 100 to 1000 nM
FC(F)(F)c1ccc(Nc2cc(-c3nc(N4CCNCC4)c4c(C5CC5)cncc4n3)ccn2)cn1 [Example 270, [4-(5-Cyclopropyl-4-piperazin-1-yl-pyrido[3,4-d]pyrimidin-2-yl)-pyridin-2-yl]-(6-trifluoromethyl-pyridin-3-yl)-amine] | 100 to 1000 nM
COc1cncc2nc(-c3ccnc(NC(=O)Cc4ccc(Cl)cc4)c3)nc(N3CCNCC3)c12 [Example 369, 2-(4-Chloro-phenyl)-N-[4-(5-methoxy-4-piperazin-1-yl-pyrido[3,4-d]pyrimidin-2-yl)-pyridin-2-yl]-acetamide] | < 100 nM
C[C@H]1CN(c2nc(-c3ccnc(Nc4nc(F)ccc4F)c3)nc3cncc(C4CC4)c23)CCN1 [Example 694, {4-[5-Cyclopropyl-4-((S)-3-methyl-piperazin-1-yl)-pyrido[3,4-d]pyrimidin-2-yl]-pyridin-2-yl}-(3,6-difluoro-pyridin-2-yl)-amine] | < 100 nM
COC(=O)[C@@H]1C[C@H](Nc2nc(-c3ccncc3)nc3cnccc23)CN1 [Example 39, methyl (2S,4S)-4-{[2-(pyridin-4-yl)pyrido[3,4-d]-pyrimidin-4-yl]-amino}pyrrolidine-2-carboxylate] | 10000 to 40000 nM

Other lines, results leading:

IC50 | SMILES
< 100 nM | CN1CCN(c2cccc(Nc3cc(-c4nc(N5CCC(O)C(O)C5)c5c(C6CC6)cncc5n4)ccn3)c2)CC1 (single isomer, unassigned) [Example 753, (3S,4S or 3R,4R)-1-(5-Cyclopropyl-2-{2-[3-(4-methyl-piperazin-1-yl)-phenylamino]-pyridin-4-yl}-pyrido[3,4-d]pyrimidin-4-yl)-piperidine-3,4-diol]
< 100 nM | COc1cncc2nc(-c3ccnc(NC(=O)Cc4cccc(C(F)(F)F)c4)c3)nc(N3CCNCC3)c12 [Example 373, N-[4-(5-Methoxy-4-piperazin-1-yl-pyrido[3,4-d]pyrimidin-2-yl)-pyridin-2-yl]-2-(3-trifluoromethyl-phenyl)-acetamide]
< 100 nM | FC(F)(F)c1ccc(Nc2cc(-c3nc(N4CCNCC4)c4c(C5CCC5)cncc4n3)ccn2)nc1 [Example 809, [4-(5-Cyclobutyl-4-piperazin-1-yl-pyrido[3,4-d]pyrimidin-2-yl)-pyridin-2-yl]-(5-trifluoromethyl-pyridin-2-yl)-amine]
< 100 nM | Clc1ccnc(Nc2cc(-c3nc(N[C@@H]4CCNC4)c4ccncc4n3)ccn2)c1 [Example 339, {2-[2-(4-Chloro-pyridin-2-ylamino)-pyridin-4-yl]-pyrido[3,4-d]pyrimidin-4-yl}-(R)-pyrrolidin-3-yl-amine]
100 to 1000 nM | OC1CCN(c2nc(-c3ccnc(Nc4ccccc4F)c3)nc3cncc(C4CC4)c23)CC1 [Example 274, 1-{5-Cyclopropyl-2-[2-(2-fluoro-phenylamino)-pyridin-4-yl]-pyrido[3,4-d]pyrimidin-4-yl}-piperidin-4-ol]
100 to 1000 nM | c1ccc(C[C@H]2CNCCN2c2nc(-c3ccncc3)nc3cnccc23)cc1 [Example 38, (2S)-2-benzyl-1-[2-(pyridin-4-yl)-pyrido[3,4-d]-pyrimidin-4-yl]-piperazine]
< 100 nM | C[C@H]1CN(c2nc(-c3ccnc(Nc4nc(F)ccc4F)c3)nc3cncc(C4CCC4)c23)CCN1 [Example 798, {4-[5-Cyclobutyl-4-((S)-3-methyl-piperazin-1-yl)-pyrido[3,4-d]pyrimidin-2-yl]-pyridin-2-yl}-(3,6-difluoro-pyridin-2-yl)-amine]
< 100 nM | OC1CN(c2nc(-c3ccnc(Nc4cccc(N5CCNCC5)c4)c3)nc3cncc(C4CC4)c23)C1 [Example 778, 1-{5-Cyclopropyl-2-[2-(3-piperazin-1-yl-phenylamino)-pyridin-4-yl]-pyrido[3,4-d]pyrimidin-4-yl}-azetidin-3-ol]
< 100 nM | Fc1cccc(F)c1Nc1cc(-c2nc(NC3CCNC3)c3c(C4CC4)cncc3n2)ccn1 (centres unmarked) [Example 837, {5-Cyclopropyl-2-[2-(2,6-difluoro-phenylamino)-pyridin-4-yl]-pyrido[3,4-d]pyrimidin-4-yl}-pyrrolidin-3-yl-amine]
< 100 nM | N[C@H](CNc1nc(-c2ccncc2)nc2cnccc12)Cc1ccccc1 [Example 6, N-[(2S)-2-amino-3-phenylpropyl]-2-(pyridin-4-yl)pyrido[3,4-d]-pyrimidin-4-amine]
< 100 nM | CC1(C)CN(c2nc(-c3ccnc4[nH]c(C(C)(C)C)cc34)nc3cncc(C4CCC4)c23)CCN1 [Example 2028, 2-(2-tert-Butyl-1H-pyrrolo[2,3-b]pyridin-4-yl)-5-cyclobutyl-4-(3,3-dimethyl-piperazin-1-yl)-pyrido[3,4-d]pyrimidine]
< 100 nM | N#CC[C@H]1CN(c2nc(N3CCOCC3)nc3cncc(C4CC4)c23)CCN1 [Example 1018, [(S)-4-(5-Cyclopropyl-2-morpholin-4-yl-pyrido[3,4-d]pyrimidin-4-yl)-piperazin-2-yl]-acetonitrile]
< 100 nM | c1cnc(Nc2cc(-c3nc(N4CCNCC4)c4c(C5CC5)cncc4n3)ccn2)cn1 [Example 507]
< 100 nM | CNC1CCCN(c2nc(-c3ccnc(Nc4ncc(F)cc4F)c3)nc3cncc(C4CC4)c23)C1 (centres unmarked) [Example 2205, {4-[5-Cyclopropyl-4-(3-methylamino-piperidin-1-yl)-pyrido[3,4-d]pyrimidin-2-yl]-pyridin-2-yl}-(3,5-difluoro-pyridin-2-yl)-amine]
< 100 nM | c1cc(-c2nc(N3CCNCC3)c3c(C4CC4)cncc3n2)cc(Nc2nc3cc(C4CC4)ccn3n2)n1 [Example 831, [4-(5-Cyclopropyl-4-piperazin-1-yl-pyrido[3,4-d]pyrimidin-2-yl)-pyridin-2-yl]-(7-cyclopropyl-[1,2,4]triazolo[1,5-a]pyridin-2-yl)-amine]
